Data from patent publication US20020025940A1, “Methods and compositions for sensitive and rapid, functional identification of genomic polynucleotides and use for cellular assays in drug discovery” (Aurora Biosciences Corporation, priority 1997, published 2002).

Columns and labels:
Type in all cases: cell-based, human
[1] = test system: BLEC Jurkat clones; experiment: Specificity of activated BLEC Jurkat clones, relative beta-lactamase activity; settings: PMA 8 nM, Thaps 1 microM, CsA 100 nM, PHA 10 microgram/ml
Source text: (§1) Isolated clones from PHA-induced (Example 6) and PHA-repressed (Example 7) procedures described above were characterized to determine the specificity of their modulation and time required for induction or repression. Clones were stimulated with multiple activators or inhibitors over a one to twenty-four hour time interval.
(§2) In this study, PMA, which is a PKC activator, Thapsigargin which increases intracellular calcium, PHA which activates the T-cell receptor pathway, and cyclosporin A which is a clinically approved immunosuppressant that inhibits the Ca^2+ dependent phosphates calcineurin were investigated for their ability to modulate beta-lactamase expression in PHA induced and repressed BLEC clones.

[2] = test system: clone C2 (3×NFAT response element linked to beta-lactamase, M1 muscurinic receptor); experiment: Relative beta-lactamase activity of control clone C2; settings: PMA 8 nM, Thaps 1 microM, CsA 100 nM, PHA 10 microgram/ml
Source text: as §1, §2

[3] = test system: induced BLEC Jurkat clones; experiment: Characterization of induced BLEC Jurkat clones, change in 460/530 ratio; settings: PHA 10 microgram/ml, Thaps 1 microM, PMA 8 nM, Anti-CD3 2 microgram/ml
Source text: These clones represent cells in which the trapping construct had integrated into a gene up regulated by PHA (T-cell) activation. Thus, these cells report the transcriptional activation of a gene upon cellular activation. Individual clones were identified and isolated by FACS using CCF2/AM to detect beta-lactamase activity. This clone isolation method, the induced sorting paradigm, used three sequential and independent stimulation and sorting protocols. […] These control cells were all green.
These isolated clones were expanded and tested for PHA inducibility by microscopic inspection with and without PHA stimulation in the presence of CCF2/AM. A total of fifty-five PHA inducible clones were identified using this procedure. The PHA inducibility for these clones ranged from a 1.5 to 40 fold change in the 460/530 ratio as compared to unstimulated control cells. Genomic Southern analysis using a DNA probe encoding beta-lactamase established that these clones represented 34 independent stable vector integration events. A list of clones obtained by the methods of the present invention and their characteristics is provided below in Table 6 and Table 7.
In addition to PHA inducible clones, Phobol 12-myristate 13-acetate (PMA) (Calbiochem), Thapsigargin (Thaps) (Calbiochem), and PMA+Thaps inducible clones were isolated using the general procedure set forth above using the indicated inducer rather than PHA. PMA is a specific activator of PKC (protein kinase C) and Thaps is a specific activator of intracellular calcium ion release (Thaps). These clones were isolated using three rounds of FACS using the general procedures described for the PHA inducible clones in Example 5. In such instances, other stimulants were substituted for PHA. PMA was provided at 8 nM, Thaps was provided at 1 microM. When these two stimulants were combined, their concentration was not changed. […] By using varied selection conditions, it is possible to isolate functionally distinct clones downstream of the desired signaling target.
Table 7 and Table 8 provide data similar to that provided in Table 5 for all of the clones obtained by the methods of Examples 5 to 7.

With `CCCCCCCCCCCCCC(=O)O[C@@H]1[C@@H](C)[C@@]2(O)[C@@H](C=C(CO)C[C@]3(O)C(=O)C(C)=C[C@@H]23)[C@@H]2C(C)(C)[C@]12OC(C)=O` [PMA, Phobol 12-myristate 13-acetate] as the molecule, how does the “Relative Beta-Lactamase Activity of the Clone by the Indicated Stimulus After 24 hours (% of maximum activated stimuli)” value ([1]; clone J32-6D4) read?
Its value is 60%.

And the “Relative Beta-Lactamase Activity of the Clone by the Indicated Stimulus After 24 hours (% of maximum activated stimuli)” value ([1]; clone J83 97-PPTR2 (repressed paradigm))?
Its value is 100%.

And the “Relative Beta-Lactamase Activity of the Clone by the Indicated Stimulus After 24 hours (% of maximum activated stimuli)” value ([1]; clone J83-PI9)?
The value was <1%.

What about the “Relative Beta-Lactamase Activity of the Clone by the Indicated Stimulus After 24 hours (% of maximum activated stimuli)” value ([1]; clone J83-PTI8) of the same molecule?
The value was 80%.

What about the “Relative Beta-Lactamase Activity of the Clone by the Indicated Stimulus After 24 hours (% of maximum activated stimuli)” value ([1]; clone J389-PTI4) of the same molecule?
The value was 90%.

What about the “Relative Beta-Lactamase Activity of the Clone by the Indicated Stimulus After 24 hours (% of maximum activated stimuli)” value [2] of the same molecule?
The value was <1%.

What about the “Change in 460/530 ratio in the indicated clone by the following activator” value (from here on “Change in 460/530 ratio”) ([3]; clone J83PI1) of the same molecule?
Its value is 3-4.

And the “Change in 460/530 ratio” value ([3]; clone J83PI2)?
The value was 7-8.

And the “Change in 460/530 ratio” value ([3]; clone J83PI3)?
The value was 3-4.

And the “Change in 460/530 ratio” value ([3]; clone J83PI4)?
Its value is 0.

What about the “Change in 460/530 ratio” value ([3]; clone J83PI6) of the same molecule?
The value was 0.

And the “Change in 460/530 ratio” value ([3]; clone J83PI7)?
Its value is 2.

What about the “Change in 460/530 ratio” value ([3]; clone J83PI8) of the same molecule?
Its value is 4-5.

What about the “Change in 460/530 ratio” value ([3]; clone J83PI9) of the same molecule?
Its value is 0.

What about the “Change in 460/530 ratio” value ([3]; clone J83PI13) of the same molecule?
The value was 0.

What about the “Change in 460/530 ratio” value ([3]; clone J83PI14) of the same molecule?
Its value is 2.

And the “Change in 460/530 ratio” value ([3]; clone J83PI15)?
Its value is 3.

And the “Change in 460/530 ratio” value ([3]; clone J83PI16)?
Its value is 3-4.

And the “Change in 460/530 ratio” value ([3]; clone J83PI18)?
Its value is 5.

And the “Change in 460/530 ratio” value ([3]; clone J83PI19)?
The value was 3.

What about the “Change in 460/530 ratio” value ([3]; clone J97PI1) of the same molecule?
The value was 3-4.

What about the “Change in 460/530 ratio” value ([3]; clone J97PI3) of the same molecule?
The value was 1-2.

And the “Change in 460/530 ratio” value ([3]; clone J97PI4)?
The value was 1-2.

And the “Change in 460/530 ratio” value ([3]; clone J97PI5)?
The value was 1.5.

And the “Change in 460/530 ratio” value ([3]; clone J97PI6)?
Its value is 1-2.

What about the “Change in 460/530 ratio” value ([3]; clone J97PI7) of the same molecule?
The value was 1-2.

What about the “Change in 460/530 ratio” value ([3]; clone J97PI8) of the same molecule?
Its value is 1-2.

And the “Change in 460/530 ratio” value ([3]; clone J97PI9)?
Its value is 1-2.

What about the “Change in 460/530 ratio” value ([3]; clone J97PI10) of the same molecule?
The value was 1-2.

And the “Change in 460/530 ratio” value ([3]; clone J97PI11)?
The value was 2.

And the “Change in 460/530 ratio” value ([3]; clone J97PI12)?
Its value is 2-3.

And the “Change in 460/530 ratio” value ([3]; clone J97PI13)?
Its value is 1-2.

What about the “Change in 460/530 ratio” value ([3]; clone J97PI14) of the same molecule?
Its value is 2.

What about the “Change in 460/530 ratio” value ([3]; clone J97PI15) of the same molecule?
Its value is 1-2.

What about the “Change in 460/530 ratio” value ([3]; clone J97PI17) of the same molecule?
Its value is 1-2.

What about the “Change in 460/530 ratio” value ([3]; clone J97PI18) of the same molecule?
Its value is 1-2.

What about the “Change in 460/530 ratio” value ([3]; clone J97PI19) of the same molecule?
Its value is 1-2.

And the “Change in 460/530 ratio” value ([3]; clone J97PI20)?
Its value is 1-2.

What about the “Change in 460/530 ratio” value ([3]; clone J97PI21) of the same molecule?
The value was 1-2.

And the “Change in 460/530 ratio” value ([3]; clone J97PI22)?
Its value is 2-3.

And the “Change in 460/530 ratio” value ([3]; clone J97PI23)?
The value was 1-2.

And the “Change in 460/530 ratio” value ([3]; clone J97PI24)?
Its value is 2-3.

What about the “Change in 460/530 ratio” value ([3]; clone J97PI116) of the same molecule?
Its value is 2-3.

What about the “Change in 460/530 ratio” value ([3]; clone J325B5) of the same molecule?
Its value is 2-3.

And the “Change in 460/530 ratio” value ([3]; clone J325B11)?
The value was 2-3.

What about the “Change in 460/530 ratio” value ([3]; clone J325E1) of the same molecule?
Its value is 8.

And the “Change in 460/530 ratio” value ([3]; clone J325E3)?
The value was 2-3.

And the “Change in 460/530 ratio” value ([3]; clone J325E6)?
Its value is 3-4.

And the “Change in 460/530 ratio” value ([3]; clone J325G4)?
Its value is 3-4.

And the “Change in 460/530 ratio” value ([3]; clone J326C9)?
The value was 2-3.

What about the “Change in 460/530 ratio” value ([3]; clone J326D4) of the same molecule?
The value was 10.

And the “Change in 460/530 ratio” value ([3]; clone J326D7)?
Its value is 10.

And the “Change in 460/530 ratio” value ([3]; clone J326F7)?
Its value is 10.

What about the “Change in 460/530 ratio” value ([3]; clone J326H4) of the same molecule?
The value was 10.

And the “Change in 460/530 ratio” value ([3]; clone J389PM2)?
Its value is 3-4.

And the “Change in 460/530 ratio” value ([3]; clone J389PM3)?
Its value is 2-3.

What about the “Change in 460/530 ratio” value ([3]; clone J389PM5) of the same molecule?
Its value is 3-4.

And the “Change in 460/530 ratio” value ([3]; clone J389PM7)?
The value was 1-2.

What about the “Change in 460/530 ratio” value ([3]; clone J389PM8) of the same molecule?
Its value is 2-3.

What about the “Change in 460/530 ratio” value ([3]; clone J389PT4) of the same molecule?
Its value is 12.

And the “Change in 460/530 ratio” value ([3]; clone J389PTt)?
Its value is 8-9.

And the “Change in 460/530 ratio” value ([3]; clone J389TI1)?
Its value is 1-2.

And the “Change in 460/530 ratio” value ([3]; clone J389TI4)?
The value was 1-2.
